Results from patent US20100076023A1, “AMORPHOUS SOLID COMPOSITION CONTAINING A PYRAZOLE-3-CARBOXAMIDE IN AMORPHOUS FORM AND STABILISING CARRIERS” (SANOFI-AVENTIS, priority 2007, published 2010).
≈ marks a conversion by molar mass, not a printed value.

What was measured:
[1] = comparative tests on intrinsic dissolution; assay type: physicochemical; settings: Acetonitrile/H2O (60/40), 500 ml, 37° C., 75 revolutions/minute, pellets 0.5 cm^2, UV at 246 nm
Protocol: A. Tests for evaluating the rate of intrinsic dissolution are carried out with the amorphous rimonabant obtained in Example 9 and the rimonabant in its crystalline form.
These tests are carried out under the following conditions: • Solution: Acetonitrile/H2O (60/40) • Volume: 500 ml • Temperature: 37° C. • Rotation speed: 75 revolutions/minute • Surface area of the pellets: 0.5 cm^2 • Compressive force on the pellets: 2 tonnes, 20 seconds • Assay method: UV at 246 nm • Equipment: Vankel “VK700”-Kontron “Uvikon 941+”
B. Tests are carried out with the amorphous surinabant obtained in Example 10 and the surinabant in its crystalline form. The test conditions are identical to those of the comparative tests carried out for rimonabant (see preceding section A).

[2] = stability under stressing conditions (100° C., X-ray powder diffractometry); assay type: physicochemical; settings: same stressing conditions
Protocol: The apparatus used is a Bragg-Brentano-type DT 500 diffractometer from Siemens®. The line used is Kα1 of copper obtained at an accelerating voltage of 30 mA-40 kV. The diffractograms are recorded for angles of between 2° and 40° at the rate of 1°.min^−1 in Bragg 2-theta.
The physicochemical stability of the solid solution of powder obtained is determined at 100° C. without a controlled atmosphere, for 52 days. Several samples are placed in an oven adjusted to the temperature of 100° C. and analyzed at various times by X-ray powder diffractometry.
The physicochemical stability of the solid solution of Example 2 is determined at 100° C. without a controlled atmosphere, for 28 days. Several samples are placed in an oven adjusted to the temperature of 100° C., and are analyzed at various times by powder X-ray diffractometry.

[3] = membrane permeability on the Caco-2 cell model; assay type: in vitro ADME; settings: human; Caco-2 cell model (Gres et al.); read-out: membrane permeability coefficient
Protocol: (§1) These compounds are molecules which are relatively water-insoluble; their water-solubilities are respectively 0.1 μg/ml and 1 μg/l at pH=6.5. Furthermore, these compounds have high membrane permeability coefficients: respectively 78×10^−7 cm/s and 96×10^−7 cm/s on the Caco-2 cell model, as described by M. G. Gres et al., in Pharmaceutical Research, 1998, 15(5), 726-733.

[4] = water-solubility at pH 6.5; assay type: physicochemical
Protocol: as §1

Compound	rate of intrinsic dissolution [1] [mg.min^−1.cm^−2]	time in which it becomes completely crystalline [2] [h]	Papp [3] [×10⁻⁶ cm/s]	solubility [4] [µg/mL]
Cc1c(C(=O)NN2CCCCC2)nn(-c2ccc(Cl)cc2Cl)c1-c1ccc(Cl)cc1 [crystalline rimonabant, N-Piperidino-5-(4-chlorophenyl)-1-(2,4-dichlorophenyl)-4-methylpyrazole-3-carboxamide]	0.7			
CCc1c(C(=O)NN2CCCCC2)nn(-c2ccc(Cl)cc2Cl)c1-c1ccc(Br)cc1 [amorphous surinabant, N-piperidino-5-(4-bromophenyl)-1-(2,4-dichlorophenyl)-4-ethylpyrazole-3-carboxamide]	0.85	≤ 24		
Cc1c(C(=O)NN2CCCCC2)nn(-c2ccc(Cl)cc2Cl)c1-c1ccc(Cl)cc1 [amorphous rimonabant, N-Piperidino-5-(4-chlorophenyl)-1-(2,4-dichlorophenyl)-4-methylpyrazole-3-carboxamide]	1.3			

Next, values leading:

rate of intrinsic dissolution [1] [mg.min^−1.cm^−2]	time in which it becomes completely crystalline [2] [h]	Papp [3] [×10⁻⁶ cm/s]	solubility [4] [µg/mL]	Compound
0.2				CCc1c(C(=O)NN2CCCCC2)nn(-c2ccc(Cl)cc2Cl)c1-c1ccc(Br)cc1 [crystalline surinabant, N-piperidino-5-(4-bromophenyl)-1-(2,4-dichlorophenyl)-4-ethylpyrazole-3-carboxamide]
		7.8	0.1 (≈ 0.216 µM)	Cc1c(C(=O)NN2CCCCC2)nn(-c2ccc(Cl)cc2Cl)c1-c1ccc(Cl)cc1 [rimonabant, N-Piperidino-5-(4-chlorophenyl)-1-(2,4-dichlorophenyl)-4-methylpyrazole-3-carboxamide]
		9.6	1 (≈ 1.91 µM)	CCc1c(C(=O)NN2CCCCC2)nn(-c2ccc(Cl)cc2Cl)c1-c1ccc(Br)cc1 [surinabant, N-piperidino-5-(4-bromophenyl)-1-(2,4-dichlorophenyl)-4-ethylpyrazole-3-carboxamide]
